Reference: publication PMC8123663, “Small-Molecule Inhibitors of the RNA M6A Demethylases FTO Potently Support the Survival of Dopamine Neurons” (International Journal of Molecular Sciences, 2021)
Where “and” joins values, the source holds several entries; their conditions need not be identical. Identical values can stand only once. Entries after “also recorded” stand apart in the source; their conditions may differ.

Key:
[1] = tested on: mouse midbrain dopamine neurons; assay: Survival of growth factor-deprived primary midbrain dopamine neurons; type: cell-based; details: for Protection of embryonic midbrain dopamine neurons from growth factor deprivation-induced cell death: E13 mouse midbrain cultures, TH-positive cells, 10–1000 nM, five days; for Number of TH-positive neurons: three tested concentrations, growth factor deprivation model; for Neuroprotective effect at 10 nM / Neuroprotective effect at 100 nM / Neuroprotective effect at 1000 nM: growth factor deprivation
Protocol: We, therefore, assessed the neuroprotective ability of different concentrations of FTO or ALKBH5 inhibitors in cultured growth factor deprived dopamine neurons. Human recombinant GDNF (100 ng/mL) or a condition without any neurotrophic compound added were used as positive and negative controls, respectively. Growth factor deprivation caused cell death by 50–70%. Representative images of mouse E13 wild-type midbrain cultures treated with vehicle, FTO or ALKBH5 inhibitors, and GDNF (positive control) probed with anti-TH antibody are shown on Figure 7B.
The midbrain floors were dissected from the ventral mesencephalic of 13 days old NMRI strain mouse embryos following the published procedure. The tissues were incubated with 0.5% trypsin (103139, MP Biomedicals, Inc, Thermo Fisher Scientific, Waltham, MA, USA) in HBSS (Ca^2+/Mg^2+-free) (14170112, Invitrogen, Thermo Fisher Scientific, Carlsbad, CA, USA) for 20 min at 37 °C, then mechanically dissociated. Cells were plated onto the 96-well plates coated with poly-L-ornithine (Sigma-Aldrich, Merck KGaA, St. Louis, MO, USA). Equal volumes of cell suspension were plated onto the center of the dish. The dopamine neurons were cultured for five DIV in presence of cell culture media Dulbecco’s MEM/Nut mix F12 (Invitrogen/Gibco; 21331–020), 100 × N2 serum supplement (Invitrogen/ Gibco; 17502–048), 33 mM D-Glucose (Sigma; G-8769), 0.5 mM L-Glutamine (Invitrogen/ Gibco; 25030–032), and 100 μg/mL Primocin (Invivo Gen, San Diego, CA, USA)]. On 6 DIV, to deprive growth factors, the cultures were washed three times with normal medium and the FTO and ALKBH5 inhibitors and glial cell line-derived neurotrophic factor (GDNF) were applied. The cells were grown for five days with different concentrations of FTO and ALKBH5 inhibitors. Human recombinant GDNF (100 ng/mL) (Icosagen AS, Tartu, Estonia) or a condition without any neurotrophic compound added were used as positive and negative controls, respectively.
After growing five days, the neuronal cultures were fixed and stained with anti-Tyrosine Hydroxylase antibody (MAB318, Millipore Bioscience Research Reagents, Temecula, CA, USA). Images were acquired by CellInsight (Thermo Fisher Scientific) high-content imaging equipment. Immunopositive neurons were counted by CellProfiler software and the data was analyzed by CellProfiler analyst software. The results are expressed as % of cell survival compared to GDNF-maintained neurons.

[2] = tested on: ALKBH5; parameters: method as in earlier work; details: read-out: IC50 against ALKBH5; cited from earlier work
[3] = target: T1, FTO protein (Homo sapiens, UniProt Q9C0B1); assay: FTO enzyme inhibition assay (demethylation of m6A RNA probe); type: biochemical; parameters: 6His (C); purchased ProteoGenics SAS (ProteoGenix), Schiltigheim, France; host or cells: HEK293 (transient transfection); details: for Inhibitory effect on FTO: up to the 100 µM concentration; for IC50: 10 nM FTO, 200 ng m6A RNA probe, 2 h at RT
T1 sequence (Q9C0B1 whole entry): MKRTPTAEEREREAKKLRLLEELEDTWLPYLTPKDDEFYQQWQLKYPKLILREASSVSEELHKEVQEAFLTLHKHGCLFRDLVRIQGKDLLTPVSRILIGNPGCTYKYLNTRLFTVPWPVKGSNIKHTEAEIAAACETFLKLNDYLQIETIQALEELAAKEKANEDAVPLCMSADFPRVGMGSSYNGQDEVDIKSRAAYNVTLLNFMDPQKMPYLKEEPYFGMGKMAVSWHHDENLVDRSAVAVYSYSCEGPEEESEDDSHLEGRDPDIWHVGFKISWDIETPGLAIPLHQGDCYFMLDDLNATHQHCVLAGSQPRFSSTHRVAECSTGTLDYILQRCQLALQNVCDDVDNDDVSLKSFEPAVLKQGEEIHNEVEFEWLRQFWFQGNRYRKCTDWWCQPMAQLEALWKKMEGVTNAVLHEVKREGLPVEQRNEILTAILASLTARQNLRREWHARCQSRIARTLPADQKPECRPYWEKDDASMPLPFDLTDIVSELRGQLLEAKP
Protocol: The enzymatic assay was modified from Huang et al. The experiments were conducted in reaction buffer (50 mM Tris-HCl, pH 7.5, 300 μM 2OG, 280 μM (NH4)2Fe(SO4)2, and 2 mM L-ascorbic acid). The reaction mixture contained 200 ng methylated N^6-adenine RNA probe (SEQ ID NO: 1) (5′-CUUGUCAm6[…]-3′, Dharmacon, Lafayette, CO, USA) and 10 nM FTO protein and different concentrations of ligands (1 nM to 100 µM). Reactions were incubated on 96-well plate for 2 h at RT. After that, the amount of m^6A that was measured using EpiQuik m^6A RNA methylation Quantification Colorimetric Kit (Epigentek, Farmingdale, NY, USA).
The inhibitory effect IE of compounds on RNA probe demethylation by FTO was calculated as the enhancement of the m^6A amount as compared to the negative control (DMSO) relative to the difference between m^6A amounts of the positive control (max inhibition) and the negative control (Equation (2)) (2) IE=Cinh− CDMSO/Cinh(max)− CDMSO where Cinh, Cinh(max), and CDMSO are the amounts of m^6A at a given concentration of the inhibitor, maximum inhibition and in the case of DMSO, respectively.
Enzymatic assay curve-fitting analysis and determination of the IC50 and EC50 values were performed using AAT Bioquest, Inc. Quest Graph™ IC50 Calculator (v.1, Sunnyvale, CA, USA). MST data analysis was performed using MO.Affinity Analysis v2.3 software (NanoTemper Technologies GmbH, Munich, Germany). Statistical significance in cell survival experiments was assessed using one-way ANOVA and unpaired t-test with the GraphPad Prism8 software (GraphPad Software, Inc., 2365 Northside Dr., Suite 560, San Diego, CA, USA). Results were considered statistically significant at p values lower than 0.05.

[4] = target: T1, FTO protein; assay: Protein binding by microscale thermophoresis (MST); parameters: purchased ProteoGenics SAS (ProteoGenix), Schiltigheim, France; host or cells: HEK293 (transient transfection); details: labelled FTO 20 nM, ligand 0–10 µM, 25 °C, pH 7.4
Protocol: The microscale thermophoresis (MST) experiments were performed using Monolith NT.115 instrument (NanoTemper Technologies GmbH, Germany). Recombinant human FTO protein was labeled through His-tag using Monolith His-Tag Labeling Kit RED-tris-NTA (NanoTemper Technologies GmbH; MO-L008). The labelled FTO protein (target) was used at 20 nM in all the experiments and 10 µM starting concentrations of ligands FTO inhibitors 2 or 3 were used in both series of experiments.
The measurements were done in a buffer containing 10 mM Na-phosphate buffer, pH 7.4, 1 mM MgCl2, 3 mM KCl, 150 mM NaCl, 0.05% Tween-20 in premium coated capillaries (NanoTemper Technologies GmbH; MO-K025) using red LED source, power set at 100% and medium MST power at 25 °C. Each data point represents mean fraction bound values from n = 3 independent experiments per binding pair ±S.D, Kd values ± error estimations are indicated. Data analysis was performed using MO.Affinity Analysis v2.3 software.

[5] = tested on: dopamine neurons; assay: 6-OHDA induced death of dopamine neurons; type: cell-based; details: data not shown
[6] = tested on: murine endothelial cells bEnd3 co-cultured with murine HIFko astrocytes; assay: Artificial in vitro blood-brain barrier model; type: in vitro ADME; details: 10 µM in insert, 1 h; concentration in well ('brain') / concentration in insert
Description: The effects of FTO inhibitors were studied in the artificial in vitro BBB model, where murine endothelial cells bEnd3 were co-cultured with murine HIFko astrocytes on hanging cell culture inserts. The BBB penetration % defined as the ratio of the concentration of the compound in the well (‘brain’) side and the concentration in the insert, were 31.7 ± 3.3% for compound 2 and 30.8 ± 1.9% for compound 3.
Artificial in vitro blood–brain barrier (BBB) was established as described by Le Joncour et al. Murine endothelial cells bEnd3 (ATCC CRL-2299) were co-cultured with murine hypoxia-inducible factor knock out (HIFko) astrocytes (passage 12, received from Le Joncour) on hanging cell culture inserts (BD Falcon 353091, Franklin Lakes, NJ, USA) for five days in fetal bovine serum (FBS)-free conditions. 2.5 mL of FTO inhibitors (final concentration of 10 µM) were added into the insert (representing the ‘blood’ side) of the BBB cell. After 1 h incubation, 1 mL of the sample was taken from the insert and from the well (‘brain’ side), and the concentration of the compounds was measured by high-performance liquid chromatography (HPLC). […] The concentration of the studied compounds is each side of the BBB cell were analyzed using LC-MS system consisting of Agilent 1290 UHPLC (Agilent, Inc., Santa Clara, CA, USA) and Agilent 6460 Triple Quadrupole MS (Agilent, Inc., Santa Clara, CA 95051, USA). […]

## O=C(O)CSC(O)C(=O)c1ccccc1 (stereo not drawn) [Compound 7, 2-[(1-hydroxy-2-oxo-2-phenylethyl)sulfanyl]acetic acid]
[1]
  Protection of embryonic midbrain dopamine neurons from growth factor deprivation-induced cell death: only trend
  Number of TH-positive neurons: increased
[2]
  IC50: 840 nM

## 8-hydroxyquinoline-5-carboxylic acid [Compound 5]
[3]
  Inhibitory effect on FTO: No significant inhibitory effect

## Nc1c(C(=O)O)cnc2c(Cl)cccc12 [Compound 2, 4-amino-8-chloroquinoline-3-carboxylic acid]
[4]
  Kd: 185 nM
[1]
  Neuroprotective effect at 10 nM: neuroprotective effect can be seen
  Neuroprotective effect at 100 nM: statistically significant outcome
  Neuroprotective effect at 1000 nM: statistically significant outcome
  Protection of embryonic midbrain dopamine neurons from growth factor deprivation-induced cell death: dose-dependently protected; also recorded: comparable to that of GDNF
[3]
  IC50: 1460 nM
[5]
  Rescue of dopamine neurons from 6-OHDA induced neuronal cell death: recued dopamine neurons
[6]
  BBB penetration %: 31.7% and 31.7 ± 3.3%

## Nc1c(C(=O)O)cnc2ccccc12 [Compound 1, 4-aminoquinoline-3-carboxylic acid]
[3]
  Inhibitory effect on FTO: No significant inhibitory effect

## Nc1cccc2cc(C(=O)O)cnc12 [Compound 3, 8-aminoquinoline-3-carboxylic acid]
[4]
  Kd: 337 nM
[1]
  Neuroprotective effect at 10 nM: neuroprotective effect can be seen
  Neuroprotective effect at 100 nM: statistically significant outcome
  Neuroprotective effect at 1000 nM: statistically significant outcome
  Protection of embryonic midbrain dopamine neurons from growth factor deprivation-induced cell death: dose-dependently protected; also recorded: comparable to that of GDNF
[3]
  IC50: 28900 nM
[5]
  Rescue of dopamine neurons from 6-OHDA induced neuronal cell death: recued dopamine neurons
[6]
  BBB penetration %: 30.8% and 30.8 ± 1.9%

## Cc1cccc(C(=O)NNC(=O)/C=C/C(=O)O)c1 [Compound 4, (2E)-4-[(3-methylphenyl)formohydrazido]-4-oxobut-2-enoic acid]
[3]
  Inhibitory effect on FTO: No significant inhibitory effect

## O=C1CC(NCc2ccco2)C(=O)NN1 (stereo not drawn) [Compound 8, 4-{[(furan-2-yl)methyl]amino}-1,2-diazinane-3,6-dione]
[1]
  Neuroprotective effect at 10 nM: rescued
  Neuroprotective effect at 100 nM: only a trend
  Neuroprotective effect at 1000 nM: rescued
  Number of TH-positive neurons: increased

## Cc1cccc(C(=O)NNC(=O)c2cccc(C)c2)c1 [Compound 6, 3-methyl-N’-(3-methylbenzoyl)benzohydrazide]
[3]
  Inhibitory effect on FTO: No significant inhibitory effect
